In assay [1] the test system is HLA-DR1 transgenic mice, collagen induced arthritis. Nature of the assay: Collagen induced arthritis (CIA) mouse model for rheumatoid arthritis. In kind it is in vivo. The settings on record: compared to solvent as control; s.c. As for the experimental part: CIA is induced by immunization with type II collagen in HLA-DR1 transgenic mice as described by Rosloniec et al (J. Exp. Med. 1997; 185: 113). After disease onset, mice are treated with compounds at the maximal tolerated dose s.c. for two weeks, and the disease development compared to that in mice treated with solvent only as follows:
Disease Severity Score • 1. Erythema and mild swelling confined to the tarsals or ankle joint • 2. Erythema and mild swelling extending from the ankle to the tarsals • 3. Erythema and moderate swelling extending from the ankle to the metatarsal joints • 4. Erythema and severe swelling encompass the ankle, foot, and digits

Assay [2] concerns T cell activation from 0401(DR4) chimeric MHCII-mice. Nature of the assay: In vivo inhibition of T cell activation by co-immunisation, DR4 mice immunised with HEL. Details: species or system mouse; % Reduction of response to PPD(HEL): concentration or dose not given beside the values. The source says:
Mouse strains DR4 and DR14 carry chimeric MHC-II transgenes that encode the N-terminal domains of the respective DR molecules (forming the peptide binding site) and the remaining (2nd extracellular domains, transmembrane and intracytoplasmic domains) of the murine class II molecule I Ed. These strains are deficient of other murine class II, and thus, all helper T cell responses are triggered by peptides presented in the respective human MHC-II binding site. As an initial in vivo test of subject inhibitors designed to bind to DR, DR-transgenic mice were co-immunized with a pre-defined dose of protein antigen and different amounts of the compound antagonist to be tested. In this set-up, both antigen and compound were emulsified together in complete Freund's adjuvant (CFA), and thus, a direct competition between the two components for presentation by DR was tested. Readout of the assay is ex vivo antigen-specific activation of T cells from regional lymph nodes explanted 9 days after co-immunization. In a typical experiment, antigen dose-response was investigated, and the curves from mice immunized with antigen were compared to those from mice co-immunized with antigen+compound. The dose response curves were generated using lymph node cells pooled at equal numbers from 2-3 mice per experimental group. The experimental system also permits assessment of inherent antigenicity of the compound antagonist. This was done by setting up a dose-response study from the same cell pool using different concentrations of the compund under investigation instead of the antigen. As a specificity control, the response to Purified Protein Derivative (PPD), the major protein component of CFA, was tested in the same cell pool.
All Gpg conataining compounds have significant immunosupressive properties in one or both of the in-vivo models. Gpg-containing compounds also show improved activity or improved specificity over the Arg-containing equivilent. Further, compounds according to Formula I show activity in this assay.
Compounds of the invention were injected as an Emulsion prepared using CFA (Bacto Adjuvant Complete H37 Ra, Difco, Order-No. 3113-60); proteins 10 mg/ml in PBS, inhibitors 5 μM in 10% DMSO. CFA, PBS, antigen, and inhibitor were placed in the barrel of a 5-ml syringe (total volume not more than 1 mL). The mixture was sonicated at an amplitude less than 40% (30-35%) for two separated 15 s periods. The emulsion should seem to be hard and not liquid at this point. A drop of emulsion placed on the surface of water should not melt. The resulting emulsion was pushed through the needle into a 1 ml syringe with a needle (Gr.18, 26G×1″), and air bubbles were removed. Mice were co-immunized with 50 μg protein and 210 nM compound antagonist in final 100 μl emulsion into the tail base. Antigen+Compound and CFA are mixed 1:1 vol/vol. The best results are obtained using DR 4 mice immunised with HEL and DR 14 mice immunized with OVA.
Mice were injected at the tail-base as follows: Holding the tail of a mouse with thumb and middle finger, the index finger was placed under the base of the mouse's tail. The needle of the syringe was inserted about 1.5 cm from the tail base (hairy end) under the skin and pushed about 1 cm into the tail. 100 μl emulsion was injected into the mouse. After 9 days, mice were killed and lymph nodes removed.
The inhibitory effect of the candidate compounds on T-cell activation was tested using T-cells and antigen-presenting cells isolated from the lymph nodes of chimeric DR4-IE transgenic mice (Taconic, USA) previously co-immunized with hen egg lysozyme plus compound, or DR14-IE transgenic mice co-immunized with ovalbumin plus compound according to standard procedures (Adorini et al., 1988, Mueller et al., 1990; Current Protocols in Immunology, Vol. 2, 7.21; Ito et al., 1996). […]

For assay [3], the system named is T cell activation from 0404(DR14) chimeric MHCII-mice. Nature of the assay: In vivo inhibition of T cell activation by co-immunisation, DR14 mice immunised with OVA. More on the design: species or system mouse; % Reduction of response to PPD(OVA): concentration or dose not given beside the values. The method in brief: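 DR4 or DR14 chimeric MHC-II transgenic mice were co-immunised at the tail base with 50 μg HEL (DR4) or OVA (DR14) plus 210 nM compound, emulsified in CFA. After 9 days, pooled lymph node cells from 2–3 mice per group were tested for T-cell proliferation across an antigen dose range, compared with antigen-only immunisation; PPD served as a specificity control.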

Assay [4] relates to DR4 transgenic mice, EAE induced by MOG. Nature of the assay: Experimental autoimmune encephalomyelitis (EAE) mouse model for multiple sclerosis. The format is in vivo. The note with it: compared to solvent as control; s.c. As for the experimental part:
EAE is induced in DR4 transgenic mice by injection of myelin oligodendrocyte glycoprotein (MOG) as described by Ito et al. (1996). After disease onset, mice are treated with compounds and studied as below:
Disease Score • 1. Tail atony • 2. Hind limb weakness • 3. Hind limb paralysis • 4. Hind limb paralysis and fore limb weakness or paralysis • 5. Moribund

Numbered stars: 1 amine (or outer) side, 2 acyl side, 3 side chain; on linkers, the order of the positions; unused ones are H or OH. Square brackets hold non-standard residues; d marks the D form. Peptide text beside a SMILES is read from it. Gly(1-amidinopiperidin-4-yl) = N=C(N)N1CCC([C@H](N)C(=O)O)CC1; X1 = CC(C)c1oc([C@H](CO)N[*:1])nc1C(=O)[*:2]; Pro(3R-Ph) = O=C(O)[C@H]1NCC[C@@H]1c1ccccc1; Tic = O=C(O)[C@@H]1Cc2ccccc2CN1; Cha = N[C@@H](CC1CCCCC1)C(=O)O; Nle = CCCC[C@H](N)C(=O)O

Regarding `CCCC[C@H](NC(=O)[C@@H]1Cc2ccccc2CN1C(=O)[C@@H](NC(=O)[C@H](CC1CCCCC1)NC(C)=O)C1CCN(C(=N)N)CC1)C(=O)N1CC[C@H](c2ccccc2)[C@H]1C(=O)N[C@@H](CO)c1nc(C(=O)N(C)C)c(C(C)C)o1` [Compound P53, Ac-Cha-Gpg-Tic-Nle-βPhPro-[S(oxaz)L]-NMe2] (Ac-[Cha][Gly(1-amidinopiperidin-4-yl)][Tic][Nle][Pro(3R-Ph)][X1]-NMe2), in assay [1], the “efficacy in the CIA mouse model for rheumatoid arthritis” value was “Efficacy”. Further, the “% Reduction of response to HEL” value in assay [2] (DR4 mice co-immunised with HEL plus compound, mean % inhibition from the control over 3 concentrations of antigen (6.7, 20 and 60 ug)) was found to be 68.4%. Further, in assay [2] (specificity control: response to PPD in the same cell pool, HEL co-immunised mice), the “% Reduction of response to PPD(HEL)” value was 10.2%. Besides, the “% Reduction of response to OVA” value in assay [3] (DR14 mice co-immunised with OVA plus compound, mean % inhibition from the control over 3 concentrations of antigen (6.7, 20 and 60 ug)) was 56.3%. Moreover, in assay [3] (specificity control: response to PPD in the same cell pool, OVA co-immunised mice), the “% Reduction of response to PPD(OVA)” value amounted to 26.8%. Also, the “efficacy in the EAE mouse model for multiple sclerosis prevention” value in assay [4] is “Efficacy”.

(Values after patent publication US7629318B2, “Immunosuppressant compounds, methods and uses related thereto” (priority 2002, dated 2009).)
